Reference: patent US11185077B2, “Attractants for rodents” (priority 2016, dated 2021)

Test system: wild house mice, Mus musculus
Test: Field experiments with paired trap boxes: trap captures of wild mice
Format: in vivo
From the text: Two field experiments were run in parallel from Feb. 4, 2016 to Apr. 14, 2016 in Vancouver B.C. to evaluate the effect of synthetic androstenone (Experiment 7) and of synthetic progesterone and estrogen (Experiment 8) on trap captures of wild mice. Experimental replicates were set up as depicted in FIG. 7 along the interior walls and bird feeder areas of a plant and bird conservatory maintained under tropical conditions. Each replicate consisted of a pair of trap boxes (PROTECTA® Mouse, Bell Laboratories Inc., Madison, Wis. 53704, USA), with 50-cm spacing between boxes in each pair, and at least 2 m between pairs.
In Experiments 7 and 8, each box in each pair contained a snap trap (1) (FIG. 7) that was baited with a food lure (Musso et al. 2014). In Experiment 7, the trap box was also baited with the synthetic two-component sex pheromone of male mice (3,4-dehydro-exo-brevicomin and 2-sec-butyl-4,5-dihydrothiazole). The compounds were formulated in 10 g of mineral oil and dispensed from a custom-made scintillation vial (2) (FIG. 7). Each box in each pair also contained a piece of Whatman #1 filter paper that by random assignment was treated with 4 μg of synthetic androstenone dissolved in 50 μl ether (3a) or 50 μl ether (control; 4). […]
All boxes and snap traps in both experiments were checked every 48 h to 72 h, and test stimuli (food lure, male-specific pheromone blend in mineral oil, filter paper with or without hormones) were replaced at each visit.
Mouse captures in treatment and control traps were compared against an expected 50:50 distribution using χ^2 tests with Yates' correction for continuity (α=0.05). Replicates with captures in both trap boxes of a pair are not included in the graphical illustration and statistical analyses of data.
Four field experiments were run in Vancouver B.C. to evaluate the effect of synthetic androstenone and synthetic testosterone on captures of female wild mice and rats in combination with species-specific male sex pheromone blend. Experimental replicates were set up along the interior and exterior walls of buildings as depicted in FIG. 7. Experiment 15 evaluated captures of wild mice in trap boxes baited with high-levels of androstenone; Experiment 16 evaluated captures of wild rats in traps baited with high-levels of androstenone; Experiment 17 evaluated captures of wild mice in traps baited with low-levels of testosterone; and Experiment 18 evaluated captures of wild mice in traps baited with low-levels of androstenone. Experiment 15 was run from Feb. 4, 2016 to Apr. 14, 2016. Experiment 16 was run from Feb. 26, 2016 to Sep. 19, 2016. Experiments 17 and 18 were run in parallel from Jun. 2, 2016 to Sep. 8, 2016.
Each replicate of Experiments 15 to 18 consisted of a pair of trap boxes (Mice: PROTECTA® Mouse, Bell Laboratories Inc., Madison, Wis. 53704, USA; Rats: PROTECTA® Sidekick™; Bell Laboratories Inc., Madison, Wis. 53704), with 50-cm spacing between boxes in each pair, and at least 2 m between pairs. Each trap box contained an armed snap trap (1, Mice: Victor® Easy Set® Mouse Trap; Rats: Victor® Easy Set® Rat Trap; Woodstream Corp, Lititz, Pa. 17543, USA) baited with a cereal-based food bait and a scintillation vial (2) containing synthetic sex pheromone blends. Each box in each pair also contained a treatment stimulus that consisted of a piece of Whatman #1 filter paper (3a) that by random assignment was treated with: 4 μg of synthetic androstenone dissolved in 50 μl ether (Experiments 15 and 16); 750 μg of synthetic testosterone dissolved in 50 μl ether (Experiment 17); or 750 μg of synthetic androstenone dissolved in 50 μl ether (Experiment 18). The corresponding box in each pair contained a control stimulus which consisted of a piece of Whatman #1 filter paper (3b) treated with 50 μl ether. […]

[1] = Experiment 17, 750 μg synthetic testosterone (low-levels), with food bait and male mouse sex pheromone blend
[2] = Experiment 7, 4 μg synthetic androstenone, boxes also with food lure and male mouse sex pheromone
[3] = Experiment 15, 4 μg synthetic androstenone, with food bait and male mouse sex pheromone blend

C[C@]12CC[C@H]3[C@@H](CCC4=CC(=O)CC[C@@]43C)[C@@H]1CC[C@@H]2O [testosterone, (8R,9S,10R,13S,14S,17S)-17-hydroxy-10,13-dimethyl-1,2,6,7,8,9,11,12,14,15,16,17-dodecahydrocyclopenta[a]phenanthren-3-one, reference compound]
captures of both adult and juvenile mice (Experiment 17, 750 μg synthetic testosterone (low-levels)): no significant effect | captures of adult female mice vs control traps [1]: significantly more | captures of juvenile female mice vs control traps [1]: significantly more

C[C@]12CCC(=O)C[C@@H]1CC[C@@H]1[C@@H]2CC[C@]2(C)C=CC[C@@H]12 [androstenone, 5α-androst-16-en-3-one]
captures of adult female mice vs control boxes [2]: significantly more | captures of juvenile female mice vs control boxes [2]: significantly more | captures of juvenile and adult male mice (Experiment 15, 4 μg synthetic androstenone): no significant effect | captures of adult female mice vs control boxes [3]: significantly more | captures of juvenile female mice vs control boxes [3]: significantly more | captures of juvenile and adult male mice (Experiment 18, 750 μg synthetic androstenone (low-levels)): no significant effect | captures of female mice vs control traps (Experiment 18, 750 μg synthetic androstenone (low-levels), with food bait and male mouse sex pheromone blend): did not differ statistically
